Laboratory results: ChEMBL document CHEMBL5108027, “An unanticipated discovery of novel naphthalimidopropanediols as potential broad-spectrum antibacterial members” (Eur J Med Chem, 2022)
In brackets after ≈: the same amount, converted by molar mass. Activity calls are given as the source filed them. No cut-off for these calls is given here.

What was measured:
Staphylococcus aureus [1] = test: Antibacterial activity against Staphylococcus aureus ATCC 29213 measured by Muller-Hinton broth based microdilution assay; format: functional
Klebsiella pneumoniae = test: Antibacterial activity against Klebsiella pneumoniae measured by Muller-Hinton broth based microdilution assay; format: functional
Enterococcus faecalis = test: Antibacterial activity against Enterococcus faecalis measured by Muller-Hinton broth based microdilution assay; format: functional
Escherichia coli [2] = test: Antibacterial activity against Escherichia coli measured by Muller-Hinton broth based microdilution assay; format: functional
Escherichia coli [3] = test: Antibacterial activity against Escherichia coli ATCC 25922 measured by Muller-Hinton broth based microdilution assay; format: functional
Pseudomonas aeruginosa [4] = test: Antibacterial activity against Pseudomonas aeruginosa measured by Muller-Hinton broth based microdilution assay; format: functional
Acinetobacter baumannii = test: Antibacterial activity against Acinetobacter baumannii measured by Muller-Hinton broth based microdilution assay; format: functional
Staphylococcus aureus [5] = test: Antibacterial activity against Staphylococcus aureus ATCC 25923 measured by Muller-Hinton broth based microdilution assay; format: functional
Staphylococcus aureus [6] = test: Antibacterial activity against methicillin-resistant Staphylococcus aureus N315 measured by Muller-Hinton broth based microdilution assay; format: functional
Staphylococcus aureus [7] = test: Antibacterial activity against Staphylococcus aureus assessed as fold increase in MIC measured after 16 passages by resistance development assay; format: functional
Pseudomonas aeruginosa [8] = test: Antibacterial activity against Pseudomonas aeruginosa ATCC 27853 measured by Muller-Hinton broth based microdilution assay; format: functional
Pseudomonas aeruginosa [9] = test: Antibacterial activity against Pseudomonas aeruginosa assessed as fold increase in MIC measured after 16 passages by resistance development assay; format: functional
Staphylococcus aureus [10] = test: Antibacterial activity against Staphylococcus aureus measured by Muller-Hinton broth based microdilution assay; format: functional
Staphylococcus aureus [11] = test: Antibacterial activity against Staphylococcus aureus assessed as reduction in metabolic activity at 1 to 8 times MIC measured after 6 hrs by Alamar blue assay; format: functional, organism-based
Staphylococcus aureus [12] = test: Disruption of membrane integrity in Staphylococcus aureus assessed as increase in protein leakage by measuring increase in absorbance 1 to 8 times MIC measured for 6 hrs by Bradford assay; format: functional, organism-based
Staphylococcus aureus [13] = test: Disruption of membrane integrity in Staphylococcus aureus at 8 times MIC by calcein-AM/PI staining based fluorescence analysis; format: functional, organism-based
Staphylococcus aureus [14] = test: Bactericidal activity against Staphylococcus aureus assessed as reduction in number of colonies at 0.5 to 2 times MIC measured within 6 hrs by time-kill assay; format: functional, organism-based
[15] = Hemolytic activity in human RBC measured after 1 hr; format: toxicity, cell-based, Erythrocyte; conditions: human red blood cells (erythrocytes)
[16] = Toxicity in systemic sepsis mouse model infected with Staphylococcus aureus assessed as effect on spleen morphology at 2.5 to 5 mg/kg administered every 12 hrs for 3 days and measured by H and E staining-based assay; format: organism-based; conditions: in vivo, 72 h, dose 2.5-5 mg/kg, time 3 day
Staphylococcus aureus [17] = test: Antibacterial activity against Staphylococcus aureus measured after 16 passages by resistance development assay; format: functional, organism-based
Staphylococcus aureus [18] = test: Inhibition of biofilm formation in Staphylococcus aureus at 1 to 8 times MIC measured after 24 hrs by crystal violet staining method; format: functional, organism-based
[19] = Hemolytic activity in human RBC assessed as hemolytic rate at 2 to 512 ug/ml and measured after 1 hr; format: toxicity, cell-based, Erythrocyte; conditions: human red blood cells (erythrocytes), at 2 to 512 µg/mL, dose 2-512 µg/ml, read-out: Activity
Staphylococcus aureus [20] = test: Antibacterial activity against Staphylococcus aureus assessed as lysed debris at 1 to 2 ug/ml measured by SEM analysis; format: functional, organism-based; conditions: dose 1-2 µg/ml
Staphylococcus aureus [21] = test: Induction of membrane depolarization in Staphylococcus aureus at 0.5 to 2 times MIC measured upto 1 hr by DiSC35 dye-based fluorescence assay; format: functional, organism-based
Staphylococcus aureus [22] = test: Antibacterial activity against Staphylococcus aureus assessed as deformed and shriveled cell structures at 1 to 2 ug/ml measured by SEM analysis; format: functional, organism-based; conditions: dose 1-2 µg/ml
Staphylococcus aureus [23] = test: Antibacterial activity against Staphylococcus aureus assessed as reduction in LDH activity at 1 to 8 times MIC measured after 6 hrs by microplate reader method; format: functional; set-up: scale not given: the % may be the effect or the level left
L929 = test: Cytotoxicity against mouse L929 cells assessed as effect on cell growth at 0.25 to 0.5 ug/ml incubated for 24 hrs by MTT assay; format: toxicity, cell-based; conditions: l929, 24 h, dose 0.25-0.5 µg/ml
Staphylococcus aureus [24] = test: Induction of inner membrane permeabilization in Staphylococcus aureus by measuring increase in fluorescence intensity at 1 to 8 times MIC by calcein-AM/PI staining based fluorescence analysis; format: functional, organism-based
[25] = Selectivity ratio of HC50 for hemolytic activity in human RBC to MIC for antibacterial activity against Staphylococcus aureus; format: toxicity; conditions: human red blood cells (erythrocytes)
Escherichia coli [26] = test: Antibacterial activity against Escherichia coli assessed as lysed debris at 8 to 16 ug/ml measured by SEM analysis; format: functional, organism-based; conditions: dose 8-16 µg/ml
Staphylococcus aureus [27] = test: Inhibition of bacterial growth of Staphylococcus aureus at 1 to 2 times MIC; format: functional
Escherichia coli [28] = test: Antibacterial activity against Escherichia coli assessed as deformed and shriveled cell structures at 8 to 16 ug/ml measured by SEM analysis; format: functional, organism-based; conditions: dose 8-16 µg/ml
[29] = Toxicity in systemic sepsis mouse model infected with Staphylococcus aureus assessed as effect on liver morphology at 2.5 to 5 mg/kg administered every 12 hrs for 3 days and measured by H and E staining-based assay; format: organism-based; conditions: in vivo, 72 h, dose 2.5-5 mg/kg, time 3 day
Staphylococcus aureus [30] = test: Antibiofilm activity in Staphylococcus aureus at 1 to 8 times MIC measured by Alamar blue assay; format: functional, organism-based
Staphylococcus aureus [31] = test: Induction of oxidative stress in Staphylococcus aureus assessed as increase in intracellular ROS level at 1 to 8 times MIC measured after 6 hrs by DCFH-DA staining method; format: functional, organism-based
[32] = Toxicity in systemic sepsis mouse model infected with Staphylococcus aureus assessed as effect on kidney morphology at 2.5 to 5 mg/kg administered every 12 hrs for 3 days and measured by H and E staining-based assay; format: organism-based; conditions: in vivo, 72 h, dose 2.5-5 mg/kg, time 3 day
Staphylococcus aureus [33] = test: Induction of oxidative stress in Staphylococcus aureus assessed as decrease in GSH activity at 1 to 8 times MIC measured after 6 hrs by Ellman's assay; format: functional, organism-based
Staphylococcus aureus [34] = test: Disruption of membrane integrity in Staphylococcus aureus assessed as increase in nucleic acid leakage by measuring increase in absorbance 1 to 8 times MIC measured for 6 hrs by spectrophotometry; format: functional, organism-based

## CCn1cc(C(=O)O)c(=O)c2cc(F)c(N3CCNCC3)cc21 [NORFLOXACIN]
Staphylococcus aureus [1]
  MIC: 16 µg/mL (≈ 50.1 µM)
Klebsiella pneumoniae
  MIC: 4 µg/mL (≈ 12.5 µM)
Enterococcus faecalis
  MIC: 8 µg/mL (≈ 25.1 µM)
Escherichia coli [2]
  MIC: 2 µg/mL (≈ 6.26 µM)
Escherichia coli [3]
  MIC: 4 µg/mL (≈ 12.5 µM)
Pseudomonas aeruginosa [4]
  MIC: 4 µg/mL (≈ 12.5 µM)
Acinetobacter baumannii
  MIC: 1 µg/mL (≈ 3.13 µM)
Staphylococcus aureus [5]
  MIC: 16 µg/mL (≈ 50.1 µM)
Staphylococcus aureus [6]
  MIC: 16 µg/mL (≈ 50.1 µM)
Staphylococcus aureus [7]
  fold change (FC): 64
Pseudomonas aeruginosa [8]
  MIC: 2 µg/mL (≈ 6.26 µM)
Pseudomonas aeruginosa [9]
  fold change (FC): 128
Staphylococcus aureus [10]
  MIC: 8 µg/mL (≈ 25.1 µM)

## CCn1c2ccccc2c2cc(/C=N/Nc3ccc4c5c(cccc35)C(=O)N(C(CO)CO)C4=O)ccc21
Staphylococcus aureus [11]
  Activity: Active
Staphylococcus aureus [12]
  Activity: Active
Staphylococcus aureus [13]
  Activity: Active
Staphylococcus aureus [14]
  Activity: Active
[15]
  HC50 at 1 h: 722 µg/mL
[16]
  Activity: Non-Toxic
Staphylococcus aureus [17]
  Activity: Active
Staphylococcus aureus [1]
  MIC: 0.5 µg/mL (≈ 0.987 µM)
Staphylococcus aureus [18]
  inhibition: Active
[19]
  hemolysis at 1 h: < 5%
Staphylococcus aureus [20]
  Activity: Active
Staphylococcus aureus [21]
  Activity: Active
Klebsiella pneumoniae
  MIC: 8 µg/mL (≈ 15.8 µM)
Staphylococcus aureus [22]
  Activity: Active
Enterococcus faecalis
  MIC: 8 µg/mL (≈ 15.8 µM)
Staphylococcus aureus [23]
  Activity: 70%
Escherichia coli [2]
  MIC: 8 µg/mL (≈ 15.8 µM)
L929
  Activity: Non-Toxic
Escherichia coli [3]
  MIC: 128 µg/mL (≈ 253 µM)
Staphylococcus aureus [24]
  Activity: Active
[25]
  selectivity ratio: 2890
Pseudomonas aeruginosa [4]
  MIC: 64 µg/mL (≈ 126 µM)
Acinetobacter baumannii
  MIC: 64 µg/mL (≈ 126 µM)
Escherichia coli [26]
  Activity: Active
Staphylococcus aureus [5]
  MIC: 2 µg/mL (≈ 3.95 µM)
Staphylococcus aureus [6]
  MIC: 64 µg/mL (≈ 126 µM)
Staphylococcus aureus [27]
  inhibition: Active
Escherichia coli [28]
  Activity: Active
[29]
  Activity: Non-Toxic
Staphylococcus aureus [30]
  Activity: Active
Staphylococcus aureus [31]
  Activity: Active
Pseudomonas aeruginosa [8]
  MIC: 2 µg/mL (≈ 3.95 µM)
[32]
  Activity: Non-Toxic
Staphylococcus aureus [33]
  Activity: Active
Staphylococcus aureus [10]
  MIC: 0.25 µg/mL (≈ 0.494 µM)
Staphylococcus aureus [34]
  Activity: Active
